Reference: patent publication US5036157A, “Aryl derivatives” (Burroughs Wellcome Co., priority 1987, dated 1991)

Key:
Cyclooxygenase (CO) = molecular target: T1, Cyclooxygenase (CO) (Homo sapiens, UniProt P23219); experiment: In vitro inhibition of Cyclooxygenase (CO); leukocyte homogenate with arachidonic acid, radioimmunoassay for thromboxane; format: biochemical; conditions: homogenised leukocytes from aspirin-free volunteers, 5 μM arachidonic acid, 37°, 5 minutes; thomboxane B4 (CO product)
T1 construct: The leukocytes were homogenised and 5 μM arachidonic acid added; endogenous in cells; host or cells: homogenate of leukocytes from blood of normal aspirin-free volunteers
Procedure: (§1) In vitro inhibition of 5-lipoxygenase (LO) and Cyclooxygenase (CO)
(§2) Blood from normal aspirin-free volunteers was centrifuged to separate leukocytes from red cells and platelets. The leukocytes were homogenised and 5 μM arachidonic acid added, followed by incubation at 37° for 5 minutes. The reaction was stopped by boiling. Radioimmunassay was conducted for leukotriene B4 (an LO product) and thomboxane B4 (a CO product). Results were calculated as IC50 μM activity against each enzyme and as listed below.

5-lipoxygenase (LO) = molecular target: T2, 5-lipoxygenase (LO) (Homo sapiens, UniProt P09917); experiment: In vitro inhibition of 5-lipoxygenase (LO); leukocyte homogenate with arachidonic acid, radioimmunoassay for leukotriene B4; format: biochemical; conditions: homogenised leukocytes from aspirin-free volunteers, 5 μM arachidonic acid, 37°, 5 minutes; leukotriene B4 (LO product)
T2 construct: The leukocytes were homogenised and 5 μM arachidonic acid added; endogenous in cells; host or cells: homogenate of leukocytes from blood of normal aspirin-free volunteers
T2 sequence (P09917 1-674): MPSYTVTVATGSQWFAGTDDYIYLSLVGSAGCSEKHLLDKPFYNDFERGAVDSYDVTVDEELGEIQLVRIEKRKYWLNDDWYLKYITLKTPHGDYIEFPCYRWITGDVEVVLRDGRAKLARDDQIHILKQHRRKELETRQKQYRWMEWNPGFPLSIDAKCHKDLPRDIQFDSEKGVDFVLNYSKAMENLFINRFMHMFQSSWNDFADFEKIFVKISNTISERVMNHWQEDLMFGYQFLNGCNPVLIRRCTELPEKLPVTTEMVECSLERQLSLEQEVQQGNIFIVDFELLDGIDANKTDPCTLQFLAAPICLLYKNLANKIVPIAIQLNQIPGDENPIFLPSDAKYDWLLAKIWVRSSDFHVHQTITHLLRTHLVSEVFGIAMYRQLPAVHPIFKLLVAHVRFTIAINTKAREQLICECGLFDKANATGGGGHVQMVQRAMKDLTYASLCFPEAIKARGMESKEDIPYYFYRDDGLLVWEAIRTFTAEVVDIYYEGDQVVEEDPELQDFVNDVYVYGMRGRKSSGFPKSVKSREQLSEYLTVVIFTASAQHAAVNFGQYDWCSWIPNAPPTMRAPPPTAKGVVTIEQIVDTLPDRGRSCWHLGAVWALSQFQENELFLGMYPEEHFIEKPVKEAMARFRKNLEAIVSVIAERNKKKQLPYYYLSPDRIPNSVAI
Procedure: as §1, §2

T1 sequence (P23219 24-599): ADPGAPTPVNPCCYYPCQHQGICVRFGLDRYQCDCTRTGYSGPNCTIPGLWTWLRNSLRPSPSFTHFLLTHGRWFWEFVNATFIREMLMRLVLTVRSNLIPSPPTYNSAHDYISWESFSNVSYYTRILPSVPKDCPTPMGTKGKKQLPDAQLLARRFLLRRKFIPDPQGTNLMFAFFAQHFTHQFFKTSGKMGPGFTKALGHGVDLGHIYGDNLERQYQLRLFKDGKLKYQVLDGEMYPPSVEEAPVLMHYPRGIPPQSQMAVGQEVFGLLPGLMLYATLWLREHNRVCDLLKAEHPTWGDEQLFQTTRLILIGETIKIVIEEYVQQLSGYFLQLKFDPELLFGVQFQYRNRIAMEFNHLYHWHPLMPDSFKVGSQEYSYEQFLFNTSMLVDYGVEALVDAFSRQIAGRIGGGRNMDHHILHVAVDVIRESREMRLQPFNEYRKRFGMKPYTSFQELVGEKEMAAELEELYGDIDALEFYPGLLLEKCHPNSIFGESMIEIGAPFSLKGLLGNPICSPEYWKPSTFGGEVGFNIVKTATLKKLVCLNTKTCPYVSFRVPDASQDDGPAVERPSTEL

CN(O)C(=O)C=Cc1cccc(Oc2ccccc2)c1 [Example 1, 3-Phenoxy-N-methylcinnamohydroxamic Acid]
IC50 (Cyclooxygenase (CO)): 3 µM
IC50 (5-lipoxygenase (LO)): < 0.1 µM
